Experiment [1] deals with EGFR (human), P00533 [Inhibition of Proliferation of EGFR(WT, k-Ras mutation) in A549 Cells].
Experiment [2] addresses EGFR (human), P00533 [WT]. Particulars: hl-7702.
The target in another experiment is EGFR (human) (UniProt P00533). The settings on record: a431.
The target of experiment [3] is EGFR (Human), P00533 [T790M/L858R]. Particulars: h1975.

SMILES strings stand for the structures. Where only a bound is given, the exact number is not on record here.

Sequence of EGFR (human), P00533 [WT] (P00533 whole entry, looked up): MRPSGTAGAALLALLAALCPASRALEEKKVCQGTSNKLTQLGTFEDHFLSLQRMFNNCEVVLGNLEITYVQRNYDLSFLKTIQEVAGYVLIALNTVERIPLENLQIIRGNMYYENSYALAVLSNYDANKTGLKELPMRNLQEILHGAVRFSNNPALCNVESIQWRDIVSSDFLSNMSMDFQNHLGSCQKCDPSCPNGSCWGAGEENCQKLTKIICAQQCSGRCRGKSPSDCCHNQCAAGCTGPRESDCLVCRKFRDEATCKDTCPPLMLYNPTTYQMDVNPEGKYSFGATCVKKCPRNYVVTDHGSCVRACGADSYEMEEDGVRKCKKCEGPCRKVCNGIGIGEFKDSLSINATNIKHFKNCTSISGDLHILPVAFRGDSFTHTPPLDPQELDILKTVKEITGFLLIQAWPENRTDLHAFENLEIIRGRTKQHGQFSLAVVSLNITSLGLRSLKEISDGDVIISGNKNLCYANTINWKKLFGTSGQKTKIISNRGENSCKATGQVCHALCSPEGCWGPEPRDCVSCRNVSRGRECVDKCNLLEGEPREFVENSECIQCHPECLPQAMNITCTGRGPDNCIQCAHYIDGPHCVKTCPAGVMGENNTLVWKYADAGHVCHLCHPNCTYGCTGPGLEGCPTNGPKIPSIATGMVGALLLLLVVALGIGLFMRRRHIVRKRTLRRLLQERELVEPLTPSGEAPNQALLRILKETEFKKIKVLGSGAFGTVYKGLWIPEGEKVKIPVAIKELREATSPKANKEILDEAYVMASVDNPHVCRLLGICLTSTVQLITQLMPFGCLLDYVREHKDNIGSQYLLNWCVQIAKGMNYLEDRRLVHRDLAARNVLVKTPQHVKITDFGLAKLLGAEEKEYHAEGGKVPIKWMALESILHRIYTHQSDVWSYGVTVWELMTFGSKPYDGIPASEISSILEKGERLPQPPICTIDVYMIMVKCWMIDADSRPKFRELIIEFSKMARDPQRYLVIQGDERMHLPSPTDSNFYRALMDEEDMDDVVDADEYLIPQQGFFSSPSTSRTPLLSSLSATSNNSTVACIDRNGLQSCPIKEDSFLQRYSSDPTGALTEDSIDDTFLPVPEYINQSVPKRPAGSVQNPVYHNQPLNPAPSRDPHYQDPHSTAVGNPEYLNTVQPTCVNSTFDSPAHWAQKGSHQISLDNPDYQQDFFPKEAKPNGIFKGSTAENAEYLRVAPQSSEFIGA
Sequence of EGFR (human) (P00533 whole entry, looked up): as above
Sequence of EGFR (human), P00533 [Inhibition of Proliferation of EGFR(WT, k-Ras mutation) in A549 Cells] (P00533 whole entry, looked up, change not shown): as the sequence (P00533 whole entry, looked up) above
Sequence of EGFR (Human), P00533 [T790M/L858R] (P00533 whole entry T790M/L858R, looked up): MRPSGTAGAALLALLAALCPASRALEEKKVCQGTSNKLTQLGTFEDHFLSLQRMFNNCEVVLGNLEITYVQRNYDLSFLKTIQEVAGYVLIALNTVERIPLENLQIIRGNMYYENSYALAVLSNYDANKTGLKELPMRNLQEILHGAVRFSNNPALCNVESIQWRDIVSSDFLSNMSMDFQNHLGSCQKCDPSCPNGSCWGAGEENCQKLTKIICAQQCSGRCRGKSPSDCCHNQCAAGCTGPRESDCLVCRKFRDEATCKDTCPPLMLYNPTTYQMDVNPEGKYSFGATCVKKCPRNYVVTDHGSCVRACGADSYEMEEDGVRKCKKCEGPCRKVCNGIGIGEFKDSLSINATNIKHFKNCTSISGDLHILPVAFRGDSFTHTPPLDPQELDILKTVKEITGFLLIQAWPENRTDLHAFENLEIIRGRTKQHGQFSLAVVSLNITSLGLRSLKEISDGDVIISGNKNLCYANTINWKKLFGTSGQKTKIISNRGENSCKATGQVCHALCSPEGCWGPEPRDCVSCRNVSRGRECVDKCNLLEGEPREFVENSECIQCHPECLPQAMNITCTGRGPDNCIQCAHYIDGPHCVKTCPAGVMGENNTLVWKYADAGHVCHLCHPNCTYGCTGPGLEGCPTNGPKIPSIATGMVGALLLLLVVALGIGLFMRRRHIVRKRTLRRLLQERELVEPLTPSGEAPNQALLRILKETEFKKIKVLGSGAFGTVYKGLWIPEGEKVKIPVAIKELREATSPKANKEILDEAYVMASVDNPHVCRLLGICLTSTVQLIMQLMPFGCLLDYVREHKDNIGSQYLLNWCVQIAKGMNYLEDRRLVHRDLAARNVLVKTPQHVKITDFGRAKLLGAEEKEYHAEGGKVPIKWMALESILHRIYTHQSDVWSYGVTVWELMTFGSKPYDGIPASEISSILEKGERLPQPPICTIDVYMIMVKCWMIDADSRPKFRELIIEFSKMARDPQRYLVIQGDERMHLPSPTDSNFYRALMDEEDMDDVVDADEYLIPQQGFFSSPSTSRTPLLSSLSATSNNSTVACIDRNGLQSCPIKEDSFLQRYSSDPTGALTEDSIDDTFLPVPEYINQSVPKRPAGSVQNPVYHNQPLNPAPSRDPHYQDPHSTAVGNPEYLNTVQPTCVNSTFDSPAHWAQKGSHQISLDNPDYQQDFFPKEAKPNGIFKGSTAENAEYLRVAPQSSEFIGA

By IC50 is commonly meant the concentration at which inhibition is half-maximal. Higher therefore signals weaker potency. For the compound `C=CC(=O)Nc1cccc(N2C(=O)N(C)Cc3cnc(Nc4ccc(N(C)C)cc4OC)nc32)c1`, the IC50 in experiment [1] was above 20 µM; in experiment [2], above 10 µM.
In the case of `C=CC(=O)Nc1cccc(N2C(=O)N(C)Cc3cnc(NC)nc32)c1`, the IC50 at EGFR (human) is above 10 µM; in experiment [1], above 20 µM; in experiment [2], above 10 µM.
Consider `C=CC(=O)Nc1cccc(N2C(=O)N(C)Cc3cnc(Nc4ccc(N5CCN(C)CC5)cc4C)nc32)c1`, for which the IC50 in experiment [2] was above 10 µM.
For the compound `C=CC(=O)Nc1cccc(N2C(=O)N(C)Cc3cnc(Nc4ccc(N5CCOCC5)cc4OC)nc32)c1`, the IC50 (at EGFR (human); in experiment [2]) was above 10 µM in each case.
For `C=CC(=O)Nc1cccc(N2C(=O)N(C)Cc3cnc(Nc4ccc(N5CCCCC5)cc4OC)nc32)c1`, in experiment [2], the IC50 is above 10 µM.
Take `CCC(=O)Nc1cccc(N2C(=O)N(C)Cc3cnc(Nc4ccc(N5CCN(C)CC5)cc4OC)nc32)c1`: the IC50 in experiment [3] is above 20 µM; on EGFR (human) it was above 10 µM; in experiment [1], above 30 µM; in experiment [2], above 10 µM.
With `C=CC(=O)Nc1cccc(N2C(=O)N(C)Cc3cnc(Nc4ccc(N5CCN(C)CC5)cc4F)nc32)c1`, the IC50 on EGFR (human) is above 10 µM.
Turning to `COc1cc(N2CCN(C)CC2)ccc1Nc1ncc2c(n1)N(c1cccc(N)c1)C(=O)N(C)C2`, the IC50 in experiment [3] was above 20 µM; at EGFR (human) it was above 10 µM; in experiment [2], above 10 µM.
In the case of `C=CC(=O)Nc1cccc(N2C(=O)N(C)Cc3cnc(Nc4ccccc4)nc32)c1`, in experiment [2], the IC50 is above 10 µM.
On to `C=CC(=O)Nc1cccc(N2C(=O)N(C(C)C)Cc3cnc(Nc4ccc(N5CCN(C)CC5)cc4OC)nc32)c1`, for which the IC50 in experiment [2] is above 10 µM.
On the same count and under the same terms, the value for `C=CC(=O)Nc1cccc(N2C(=O)N(C)Cc3cnc(Nc4ccc(N5CCN(C)CC5)cc4OC)nc32)c1` was above 10 µM.
As for `C=CC(=O)Nc1cccc(N2C(=O)N(C)Cc3cnc(Nc4ccc(N5CCCN(C)CC5)cc4OC)nc32)c1`, the IC50 in experiment [1] is above 20 µM; in experiment [2], above 10 µM.
In experiment [2], `C=CC(=O)Nc1cccc(N2C(=O)N(c3ccc(Oc4ccccc4)cc3)Cc3cnc(Nc4ccc(N5CCN(C)CC5)cc4OC)nc32)c1` returned an IC50 above 10 µM.
Take `C=CC(=O)Nc1cccc(N2C(=O)N(C)Cc3cnc(Nc4ccc(N5CCC(N(C)C)CC5)cc4OC)nc32)c1`: the IC50 in experiment [2] was above 10 µM.
In experiment [2], `C=CC(=O)Nc1cccc(N2C(=O)N(C)Cc3cnc(Nc4ccc(N5CCN(C)CC5)cc4OCC)nc32)c1` returned an IC50 above 10 µM.
`C=CC(=O)Nc1cccc(N2C(=O)N(C)Cc3cnc(Nc4ccc(N5CCN(C)CC5)cc4OC(C)C)nc32)c1`: the IC50 in experiment [2] was above 10 µM.

Source of the values: the Kinase Knowledgebase extract (Sharma et al. 2016).
